For the first test, the target named is T1, FSHR (Homo sapiens, UniProt P23945).
T1 construct: expressed in transfected cells; host or cells: CHO (Cho-FSHR-LUC-1-1-43)
T1 sequence (P23945 18-695): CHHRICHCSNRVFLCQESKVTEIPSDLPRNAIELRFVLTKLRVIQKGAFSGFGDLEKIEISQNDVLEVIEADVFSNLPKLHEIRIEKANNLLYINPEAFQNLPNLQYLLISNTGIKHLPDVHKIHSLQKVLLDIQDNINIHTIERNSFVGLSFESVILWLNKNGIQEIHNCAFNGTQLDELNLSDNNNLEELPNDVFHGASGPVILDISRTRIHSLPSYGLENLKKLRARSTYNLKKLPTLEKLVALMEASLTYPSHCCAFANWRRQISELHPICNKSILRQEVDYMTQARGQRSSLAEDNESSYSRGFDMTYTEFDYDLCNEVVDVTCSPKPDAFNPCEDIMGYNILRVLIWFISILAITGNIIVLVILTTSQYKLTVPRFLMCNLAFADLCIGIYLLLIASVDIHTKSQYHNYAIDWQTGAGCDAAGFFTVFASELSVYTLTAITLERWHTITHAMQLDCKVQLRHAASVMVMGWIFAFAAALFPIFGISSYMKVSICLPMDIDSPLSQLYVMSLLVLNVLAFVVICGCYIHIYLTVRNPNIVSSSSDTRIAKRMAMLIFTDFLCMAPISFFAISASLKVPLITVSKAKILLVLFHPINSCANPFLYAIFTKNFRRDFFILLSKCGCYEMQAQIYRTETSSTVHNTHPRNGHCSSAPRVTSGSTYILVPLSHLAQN
T1 sequence (P01215 25-116 partner): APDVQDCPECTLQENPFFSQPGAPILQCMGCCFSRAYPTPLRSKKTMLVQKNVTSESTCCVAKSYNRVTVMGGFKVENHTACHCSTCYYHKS
T1 sequence (P01225 19-129 partner): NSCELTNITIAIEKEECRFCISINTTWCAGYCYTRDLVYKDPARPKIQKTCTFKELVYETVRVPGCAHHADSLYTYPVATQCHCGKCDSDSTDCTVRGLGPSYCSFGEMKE
As to the kind of experiment: EC50 of cyclic AMP production in CHO FSHR cells + EC20 FSH (Assay A). It counts as cell-based. Particulars: 1 h; 5 μM; effect relative to maximum response of the FSH standard; Table 2. Summed up: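 cAMP HTRF ratio (665/620 nm) read after 1 h, 37 °C exposure of CHO-FSHR cells to compound in presence of EC20 FSH ([…]) and IBMX 200 μM. Responses given relative to FSH standard maximum; EC50 derived.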
As to `Cc1ccc(C(=O)Nc2cc(C(=O)NCCCN3CCCC3=O)ccc2N2CCN(c3ccccc3N)CC2)o1` [Compound 272], the activation at 5 µM was found to be 30%.

In the case of `CCOC(=O)c1c[nH]nc1NC(=O)c1ccc(N2CCN(c3ccccc3C)CC2)c(NC(=O)c2coc(C3CC3)n2)c1` [Compound 314], the activation at 5 µM was determined as 38%. As for `Cc1ccccc1N1CCN(c2ccc(C(=O)NCCCN3CCCC3=O)cc2NC(=O)c2cc(C3CC3)nn2C)CC1` [Compound 315], the activation at 5 µM was 47%.

Still in this test, the particulars now being: CHO FSHR cells + EC20 FSH; Table 1; read-out: Assay A EC50 of cyclic AMP production.
For the molecule `Cc1ccc(C(=O)Nc2cc(C(=O)NCCCNC(=O)OC(C)(C)C)ccc2N2CCN(c3ccccc3C)CC2)o1` [Compound 258, {3-[3-[(5-Methyl-furan-2-carbonyl)-amino]-4-(4-o-tolyl-piperazin-1-yl)-benzoylamino]-propyl}-carbamic acid tert-butyl ester], the EC50 (usually the concentration giving half of the maximal effect) fell in the range of 1000 to 10000 nM. For `CC(=O)NCCCNC(=O)c1ccc(N2CCN(c3ccccc3C)CC2)c(NC(=O)c2ccc(C)o2)c1` [Compound 259, 5-Methyl-furan-2-carboxylicacid [5-(3-acetylaminopropylcarbamoyl)-2-(4-o-tolyl-piperazin-1-yl)-phenyl]-amide], the EC50 was 100 to 1000 nM. Regarding `Cc1ccc(C(=O)Nc2cc(C(=O)NCCCN3CCCC3=O)ccc2N2CCN(c3ccccc3[N+](=O)[O-])CC2)o1` [Compound 261], the EC50 fell in the range of 1000 to 10000 nM. Take `Cc1csc(-c2cccc(CNC(=O)c3ccc(N4CCN(c5ccccc5C)CC4)c(NC(=O)c4ccco4)c3)c2)n1` [Compound 262]: the 50% effective concentration (EC50) fell in the range of 100 to 1000 nM.

Still in this test, the particulars now being: CHO FSHR cells + EC20 FSH; Table 2; read-out: Assay A EC50 of cyclic AMP production.
On to `Cc1ccccc1N1CCN(c2ccc(C(=O)NCc3cccc(S(N)(=O)=O)c3)cc2NC(=O)c2ccco2)CC1` [Compound 266], for which the half-maximal effective concentration (EC50) was < 100 nM.

In the case of `Cc1ccccc1N1CCN(c2ccc(C(=O)NC3(c4cccc(C(=O)O)c4)CC3)cc2NC(=O)c2ccco2)CC1` [Compound 267], the EC50 was 1000 to 10000 nM.

As for `CCNC(=O)NCCCNC(=O)c1ccc(N2CCN(c3ccccc3C)CC2)c(NC(=O)c2ccc(C)o2)c1` [Compound 270], the 50% effective concentration (EC50) lay within 100 to 1000 nM. Regarding `COC(=O)NCCCNC(=O)c1ccc(N2CCN(c3ccccc3C)CC2)c(NC(=O)c2ccc(C)o2)c1` [Compound 271], the EC50 was 100 to 1000 nM.

Turning to `CC(C)(C)OC(=O)NC1CCN(c2ccc(C(=O)NCCCN3CCCC3=O)cc2NC(=O)c2coc(C3CC3)n2)CC1` [Compound 273], the EC50 fell in the range of 1000 to 10000 nM.

In the case of `Cc1ccccc1N1CCN(c2ccc(C(=O)NCCCc3c[nH]cn3)cc2NC(=O)c2coc(C3CC3)n2)CC1` [Compound 274], the EC50 lay in the range of 100 to 1000 nM. Turning to `Cc1ccccc1N1CCN(c2ccc(C(=O)NCCCn3cccn3)cc2NC(=O)c2coc(C3CC3)n2)CC1` [Compound 275], the EC50 lay within 100 to 1000 nM. Consider `COc1cccc(CNC(=O)c2ccc(N3CCN(c4ccccc4C)CC3)c(NC(=O)c3coc(C4CC4)n3)c2)c1` [Compound 276], for which the EC50 fell in the range of 100 to 1000 nM. For the molecule `COc1ccccc1CNC(=O)c1ccc(N2CCN(c3ccccc3C)CC2)c(NC(=O)c2coc(C3CC3)n2)c1` [Compound 277], the EC50 was in the range of 100 to 1000 nM.

For `Cc1ccccc1N1CCN(c2ccc(C(=O)NCCCc3ccccc3)cc2NC(=O)c2coc(C3CC3)n2)CC1` [Compound 278], the concentration for a half-maximal effect (EC50) lay within 1000 to 10000 nM. Still for that read-out and setting: the value for `Cc1ccccc1N1CCN(c2ccc(C(=O)NCCCn3cccc3)cc2NC(=O)c2coc(C3CC3)n2)CC1` [Compound 279] was 100 to 1000 nM; that for `Cc1ccccc1N1CCN(c2ccc(C(=O)NCC(C)CN3CCCC3=O)cc2NC(=O)c2ccco2)CC1` (stereo not shown) [Compound 280] was 100 to 1000 nM; that for `CCC(CCNC(=O)c1ccc(N2CCN(c3ccccc3C)CC2)c(NC(=O)c2ccco2)c1)N1CCCC1=O` (stereo not shown) [Compound 281] was 100 to 1000 nM. On to `Cc1ccccc1N1CCN(c2ccc(C(=O)NCCCC3CCOC3)cc2NC(=O)c2coc(C3CC3)n2)CC1` (stereo not shown) [Compound 282], for which the EC50 is 100 to 1000 nM. For the molecule `Cc1ccccc1N1CCN(c2ccc(C(N)=O)cc2NC(=O)c2ccco2)CC1` [Compound 283], the concentration for a half-maximal effect (EC50) was in the range of 1000 to 10000 nM. Same read-out and setting: the value for `Cc1ccccc1N1CCN(c2ccc(C(=O)NCCCN3CCCC3=O)cc2NC(=O)c2cc(C3CC3)n[nH]2)CC1` [Compound 284] was 100 to 1000 nM; that for `Cc1ccccc1N1CCN(c2ccc(C(=O)NCCCN3CCCC3=O)cc2NC(=O)c2nc(C3CC3)cs2)CC1` [Compound 285] was 100 to 1000 nM.

Take `Cc1ccccc1N1CCN(c2ccc(C(=O)NCCN3CCCC3=O)cc2NC(=O)c2coc(C3CC3)n2)CC1` [Compound 288]: the concentration for a half-maximal effect (EC50) was 100 to 1000 nM.

Take `Cc1ccccc1N1CCN(c2ccc(C(=O)NCCCN3C(=O)CSC3=O)cc2NC(=O)c2coc(C3CC3)n2)CC1` [Compound 289]: the EC50 was 100 to 1000 nM. Consider `COc1ccc(CNC(=O)c2ccc(N3CCN(c4ccccc4C)CC3)c(NC(=O)c3coc(C4CC4)n3)c2)cc1OC` [Compound 290], for which the half-maximal effective concentration (EC50) was 100 to 1000 nM. Take `Cc1ccccc1N1CCN(c2ccc(C(=O)NCCCn3ccnc3)cc2NC(=O)c2coc(C3CC3)n2)CC1` [Compound 291]: the EC50 is 100 to 1000 nM.

Turning to `Cc1ccccc1N1CCN(c2ccc(C(=O)NCCCn3ccnc3C)cc2NC(=O)c2coc(C3CC3)n2)CC1` [Compound 292], the EC50 was 100 to 1000 nM. Still for that read-out and setting: the value for `Cc1ccccc1N1CCN(c2ccc(C(=O)NCCc3c[nH]cn3)cc2NC(=O)c2coc(C3CC3)n2)CC1` [Compound 293] was 100 to 1000 nM; that for `Cc1ccccc1N1CCN(c2ccc(C(=O)NCC(=O)NC3CCCC3)cc2NC(=O)c2coc(C3CC3)n2)CC1` [Compound 294] was 1000 to 10000 nM; that for `COc1cc(CNC(=O)c2ccc(N3CCN(c4ccccc4C)CC3)c(NC(=O)c3coc(C4CC4)n3)c2)cc(OC)c1` [Compound 295] was 100 to 1000 nM. Still for that read-out and setting: to `Cc1ccccc1N1CCN(c2ccc(C(=O)NCCCN3C(=O)CN(C)C3=O)cc2NC(=O)c2coc(C3CC3)n2)CC1` [Compound 296] belongs 100 to 1000 nM; to `Cc1ccccc1N1CCN(c2ccc(C(=O)NC3CCN(S(C)(=O)=O)CC3)cc2NC(=O)c2coc(C3CC3)n2)CC1` [Compound 297], 100 to 1000 nM; to `Cc1ccc(C(=O)Nc2cc(C(=O)NCCCN3CCCC3=O)ccc2N2CCN(c3c(C)cccc3C)CC2)o1` [Compound 298], 1000 to 10000 nM. Still for that read-out and setting: the value for `Cc1cccc(C)c1N1CCN(c2ccc(C(=O)NCCCN3CCCC3=O)cc2NC(=O)c2coc(C3CC3)n2)CC1` [Compound 299] was 1000 to 10000 nM; that for `Cc1nc(C(=O)Nc2cc(C(=O)NCCc3cnc[nH]3)ccc2N2CCN(c3ccccc3C)CC2)cs1` [Compound 301] was 1000 to 10000 nM; that for `Cc1ccccc1N1CCN(c2ccc(C(=O)NCCc3cnc[nH]3)cc2NC(=O)C2CC2)CC1` [Compound 302] was 1000 to 10000 nM. Take `Cc1ccc(C(=O)Nc2cc(C(=O)NCCCO)ccc2N2CCN(c3ccccc3C)CC2)o1` [Compound 303]: the EC50 is 1000 to 10000 nM.

On to `Cc1ccccc1N1CCN(c2ccc(C(=O)NCCN3C(=O)CCC3=O)cc2NC(=O)c2ccco2)CC1` [Compound 305], for which the 50% effective concentration (EC50) is < 100 nM. Regarding `Cc1ccccc1N1CCN(c2ccc(C(=O)NCCCN3CCCC3=O)cc2NC(=O)c2cc(C3CC3)on2)CC1` [Compound 308], the half-maximal effective concentration (EC50) was in the range of 100 to 1000 nM. Regarding `Cc1ccccc1N1CCN(c2ccc(C(=O)N[C@H]3O[C@@H](CO)[C@@H]4OC(C)(C)O[C@@H]43)cc2NC(=O)c2coc(C3CC3)n2)CC1` [Compound 309], the half-maximal effective concentration (EC50) is 100 to 1000 nM. Regarding `Cc1cc(F)ccc1N1CCN(c2ccc(C(=O)NCCCN3CCCC3=O)cc2NC(=O)c2coc(C3CC3)n2)CC1` [Compound 312], the EC50 lay within 100 to 1000 nM.

With `O=C(NCCCN1CCCC1=O)c1ccc(N2CCN(c3ccccc3Br)CC2)c(NC(=O)c2coc(C3CC3)n2)c1` [Compound 313], the half-maximal effective concentration (EC50) was in the range of 100 to 1000 nM.

As for `Cc1ccccc1N1CCN(c2ccc(C(=O)NCCc3cn(C)cn3)cc2NC(=O)c2coc(C3CC3)n2)CC1` [Compound 317], the EC50 lay in the range of 100 to 1000 nM.

As for `CC(=O)NCCCCNC(=O)c1ccc(N2CCN(c3ccccc3C)CC2)c(NC(=O)c2coc(C3CC3)n2)c1` [Compound 318], the EC50 lay in the range of 100 to 1000 nM.

With `Cc1ccccc1N1CCN(c2ccc(C(=O)NCCCN3CCOC3=O)cc2NC(=O)c2coc(C3CC3)n2)CC1` [Compound 321], the EC50 is 100 to 1000 nM.

Turning to `CNCc1cccc(CNC(=O)c2ccc(N3CCN(c4ccccc4C)CC3)c(NC(=O)c3ccco3)c2)c1` [Compound 323], the concentration for a half-maximal effect (EC50) is 100 to 1000 nM. The same measure, in the same setting: the value for `CCn1nc(C2CC2)cc1C(=O)Nc1cc(C(=O)NCCCN2CCCC2=O)ccc1N1CCN(c2ccccc2C)CC1` [Compound 324] was 1000 to 10000 nM; that for `Cc1ccccc1N1CCN(c2ccc(C(=O)NC3(c4cccc(C(N)=O)c4)CC3)cc2NC(=O)c2ccco2)CC1` [Compound 325] was 100 to 1000 nM. Consider `Cc1ccccc1N1CCN(c2ccc(C(=O)NCc3cccc(CN(C)C(=O)OC(C)(C)C)c3)cc2NC(=O)c2ccco2)CC1` [Compound 326], for which the EC50 is > 10000 nM. Regarding `Cc1ccccc1N1CCN(c2ccc(C(=O)NCc3cccc(CN)c3)cc2NC(=O)c2ccco2)CC1` [Compound 327], the EC50 was in the range of 100 to 1000 nM.

Turning to `Cc1ccccc1N1CCN(c2ccc(C(=O)NCCCN3C(=O)CCC3C)cc2NC(=O)c2coc(C3CC3)n2)CC1` (stereo not shown) [Compound 330], the concentration for a half-maximal effect (EC50) was in the range of 100 to 1000 nM. With `Cc1ccccc1N1CCN(c2ccc(C(=O)NCCCN3CCN(C)C3=O)cc2NC(=O)c2coc(C3CC3)n2)CC1` [Compound 331], the concentration giving a half-maximal response (EC50) is < 100 nM. As for `Cc1ccccc1N1CCN(c2ccc(C(=O)NCCCN3C(=O)OCC3C)cc2NC(=O)c2coc(C3CC3)n2)CC1` (stereo not shown) [Compound 332], the EC50 fell in the range of 100 to 1000 nM. Take `Cc1ccccc1N1CCN(c2ccc(C(=O)NCCC(C)N3CCCC3=O)cc2NC(=O)c2coc(C3CC3)n2)CC1` (stereo not shown) [Compound 333]: the EC50 is 100 to 1000 nM. With `Cc1ccc(C(=O)Nc2cc(C(=O)NCCCc3cn[nH]c3)ccc2N2CCN(c3ccccc3C)CC2)o1` [Compound 334], the EC50 is 100 to 1000 nM.

`Cc1ccccc1N1CCN(c2ccc(C(=O)N[C@@H](CO)c3ccccc3)cc2NC(=O)c2coc(C3CC3)n2)CC1` [Compound 343]: the concentration for a half-maximal effect (EC50) was 1000 to 10000 nM.

The values above are taken from US9938262B2, “Benzamides” (Merck Patent GmbH, priority 2011, dated 2018).
